Data published in patent publication US6379670B1, “Methods for treatment of multiple sclerosis using peptide analogs of human myelin basic protein” (Neurocrine Biosciences, Inc., priority 1994, dated 2002).
Non-standard residues stand in square brackets, D forms with d. No end group written: not given here.

Key:
EAE in Lewis rats = test: Treatment of MBP(83-99)-induced EAE in Lewis rats with peptide analogs (subcutaneous); assay type: in vivo, Lewis rat; conditions: 13.2 mg/kg subcutaneously on day 9, FIGS. 10 and 11
Experimental: In this system, experimental allergic encephalomyelitis (EAE) was induced in twelve female Lewis rats by injection of MBP(83-99) peptide in complete Freund's adjuvant (CFA) at the base of the tail. Nine days later, rats were divided into two groups of six animals and subcutaneously injected with 13.2 mg/kg of either peptide analog or a control peptide, sperm whale myoglobin (SWM) (110-121). Animals were monitored daily for disease symptoms and scored in a blinded fashion on a nonlinear ascending scale of 0-4 with increments denoting increasing paralysis. Each individual score was averaged with group cohorts to obtain the mean clinical score.

EAE in SJL/J mice = test: Inhibition of chronic relapsing EAE in SJL/J mice; assay type: in vivo, mouse; conditions: 20 mg/kg intraperitoneally weekly for 4 weeks
Experimental: The SJL/J (H-2^5) mouse develops a chronic relapsing form of EAE in response to immunization with MBP(83-99) peptide in the presence of pertussis vaccine. The ability of the peptide analogs NBI-5719 (SEQ ID NO:4) and NBI-5765 (SEQ ID NO:6) to inhibit the disease was evaluated (see FIG. 12).
Groups of 10 animals were injected intraperitoneally weekly for 4 weeks with 20 mg/kg of either a control peptide or the peptide analog. The animals were then monitored for disease over the next 2-3 months. […] Beginning around day 70, a relapse occurred reaching a mean clinical score of about 1. […] This is particularly striking since the animals had not been exposed to the APL for approximately one month.

[1] = system: Dr2b restricted human T cell clones reactive to MBP; test: Human T cell proliferation, Dr2b restricted clones; assay type: cell-based; conditions: Dr2b restricted clone 5F6, 50 μM, FIG. 19
Experimental: (§1) Human T cells reactive to MBP (83-99) may alternatively be used to measure the ability of the peptide analog to inhibit proliferation of T cells induced by native MBP (83-99) peptide. MBP-specific T cells may be obtained as previously described by Martin et al., J. Immunol. 148:1359-1366, 1992. Briefly, T cell lines are established by culture of human T cells with irradiated, DR-matched peripheral blood cells in MEM supplemented with 2 mM L-glutamine, 50 μg/ml gentamicin, penicillin and streptomycin, 100 U/ml rIL-2, and 10% human AB negative serum. Proliferation of these T cell lines is stimulated by culturing a clone with varying concentration (1.1-30 μM) of native […] peptide, 50 μM of the peptide analog or SWM peptide, in the presence of irradiated, DR matched peripheral blood cells, following incubation for approximately 60 hours, the cells are pulsed with ^3H-thymidine for 12 hours and harvested. The amount of incorporated ^3H-thymidine is measured.
The ability of the peptide analogs NBI-5719, 5748, 5765, 5788 and 5789 (SEQ ID NOs: 4-8 respectively) to affect human T cell proliferation was assessed. A constant amount of peptide analog or the control peptide SWM (50 μM) was cultured with varying concentrations of native MBP(83-99) peptide (1.1-30 μM) in the presence of irradiated, DR matched peripheral blood cells and T cell clones derived from various MS patients. Human T cells (1×10^6) were cultured with DR matched, irradiated peripheral blood cells (PBL, 5×10^6) in medium containing IMDM supplemented with 3 μM MBP83-99, 2 mM L-glutamine, 50 μg/ml gentamicin penicillin/streptomycin, 100 U/ml r1L-2 and 10% human AB-negative serum. Cells were cultured for approximately 60 hours, pulsed with tritiated thymidine for 12 hours, and harvested. The amount of tritiated thymidine incorporated was measured, and the data represented as the mean plus or minus the standard error of the mean of replicate samples.
The ability of the peptide analog to inhibit the proliferative response of MBP-reactive T cells isolated from Dr2b (DrB1* 1501) individuals was determined. A constant amount of NBI-5788 (50 μM) was cultured with varying concentrations of native peptide (1.1-30 μM) in the presence of irradiated, DR matched peripheral blood cells and T cell clones derived from various MS patients.

[2] = system: Dr4 Dw4 restricted human T cell clone MS-1; test: Human T cell proliferation, Dr4 Dw4 restricted clone MS-1; assay type: cell-based; conditions: FIG. 20
Experimental: as §1
The ability of the peptide analogs NBI-5719, 5748, 5765, 5788 and 5789 (SEQ ID NOs: 4-8 respectively) to affect human T cell proliferation was assessed. […] The amount of tritiated thymidine incorporated was measured, and the data represented as the mean plus or minus the standard error of the mean of replicate samples.

[3] = system: Dr2b-restricted T cell clone 5F6; test: Cytokine production (TNF-α, IFN-γ) by T cell clone 5F6, EIA; assay type: cell-based, human; conditions: even at concentrations of 50 μM (data not shown)
Experimental: As discussed in detail below, the production of cytokines may also be assessed. In particular, TNF-α and IFN-γ production are especially interesting. These pro-inflammatory cytokines are thought to play a role in the pathogenesis of the disease. Briefly, T cell clone is incubated in the presence of stimulating MBP peptide and peptide analog or control peptide (SWM) or medium only. After a 24 hour incubation, the levels of TNF-α and IFN-γ in the supernatant are determined using commercially available EIA kits (Endogen, Cambridge, Mass.).
The ability of the peptide analog ligand to influence cytokine production was next measured. The Dr2b-restricted T cell clone 5F6 was incubated in the presence of 3 μM MBP peptide with either 10 μM of NBI-5788 (SEQ ID NO:7) or SWM or medium only. As a control, cells were cultured in the presence of medium alone. After 24 hours, supernatants were removed and the levels of tumor necrosis factor alpha (TNF-α) and interferon-y (IFN-γ) determined using commercially available EIA kits.

[4] = system: rat MHC class II I-A or I-E on splenic adherent cells; test: MHC binding assay (competition with biotin-labeled MBP peptide, flow cytometry); set-up: species or system Lewis rat; conditions: at 100 μM
Experimental: Binding of peptides to MHC molecules may be assayed on whole cells. Briefly, Lewis rat spleen cells are cultured for 3 hours to allow adherent cells to stick to polystyrene petri dishes. Non-adherent cells are removed. Adherent cells, which contain cells expressing MHC class II molecules, are collected by scraping the dishes. The binding of peptide analogs to cells is measured by a fluorescence assay. In this assay, splenic adherent cells are mixed with different concentrations of peptide analogs and incubated for 1 hour at 37° in a CO2 incubator. Following incubation, biotinlabeled MBP (87-99) is added to the culture wells. The cells are incubated for another hour and then washed three times in medium. […] Fluorescence intensity is calculated by subtracting the fluorescence value obtained from cells stained with phycoerythrin-streptavidin alone (control staining) from the fluorescence value obtained from biotin-labeled MBP native peptide plus phycoerythrin-streptavidin (experimental staining). […] Percent inhibition is calculated for each analog and expressed as IC50 values.
The ability of MBP peptides and peptide analogs to bind MHC was measured. […] The binding of MBP (87-99) analogs was measured using a fluorescence assay. […] Percent inhibition was calculated for each analog and expressed as IC50 values.

MS patients = conditions: human, in vivo; cited from earlier work

NBI-5765: peptide analog of MBP (83-99), SEQ ID NO:6, sequence in FIG. 8 ([dA]NPVVHAFANIVTPRTP)
effect on EAE disease severity versus control peptide (EAE in Lewis rats): significantly reduced the magnitude of the disease | effect on first phase of EAE (EAE in SJL/J mice; FIG. 12): reduced the level of the disease in the first phase | effect on relapse of EAE (EAE in SJL/J mice; relapse around day 70): reduced the severity of the relapse | inhibition of MBP-dependent proliferation of clone 5F6 [1]: inhibited the MBP-dependent proliferation in a concentration dependent fashion | inhibition of MBP-dependent proliferation of clone MS-1 [2]: inhibited the MBP-dependent proliferation in a concentration dependent fashion | stimulation of cytokine production over background by the analog itself [3]: None

NBI-5789: peptide analog of MBP (83-99), SEQ ID NO:8, sequence in FIG. 8 ([dA]KPVVHAFANIVTPRTP)
inhibition of MBP-dependent proliferation of clone 5F6 [1]: inhibited the MBP-dependent proliferation in a concentration dependent fashion | stimulation of cytokine production over background by the analog itself [3]: None

a83, A89, A91: analog with residue 83 altered to D-alanine, residue 89 to alanine, and residue 91 to alanine
inhibition of binding of biotin-labeled MBP peptide to MHC [4]: 25%

B1: IFN-γ: cytokine administered in a pilot study in MS patients (protein, UniProt P01579 24-161, looked up)
Interferon gamma: QDPYVKEAENLKKYFNAGHSDVADNGTLFLGILKNWKEESDRKIMQSQIVSFYFKLFKNFKDDQSIQKSVETIKEDMNVKFFNSNKKKRDDFEKLTNYSVTDLNVQRKAIHELIQVMAELSPAAKTGKRKRSQMLFRG
patients with a clinical exacerbation within one month after initiation of treatment (MS patients): 7 of 18
